# Measured values published in US20240390335A1, “PHARMACEUTICAL COMPOSITION CONTAINING BETA-LACTAM COMPOUND AND USE THEREOF” (priority 2021, published 2024).
# Like-named read-outs stand apart in the source and are kept apart here. Peptide text beside a SMILES is read from it. * marks the point of attachment. βNA = c1ccc2cc(N*)ccc2c1
# Key:
# Type in all cases: cell-based
# [1] = test system: Acinetobacter baumannii or Pseudomonas aeruginosa; test: MIC assay of individual compounds, summary over non-fermenter strains; conditions: various Acinetobacter baumannii or Pseudomonas aeruginosa strains
# Protocol: (§1) Mueller-Hinton broth (MH broth) medium, Trypticase Soy Broth (TSB Broth) medium, purchased from BD Difco, Cockeysville, MD, USA; • 96-well plate: Corning Costar, Cambridge, MA, USA; • Test method: the antibacterial activities were tested by the microdilution method according to the CLSI/NCCLS standard.
# (§2) (1) Preparation of the test samples: 4 mg of each sample was taken, and was prepared into a test solution at 1,024 μg/mL with MH broth, and the test solution was diluted two-fold in a 96-well plate to prepare solutions of a series of gradient concentrations, the volume in each well being 90 μL.
# (§3) (2) Preparation of a bacteria solution: The test strains were amplified by Trypticase Soy Broth (TSB Broth) according to the CLSI/NCCLS standard.
# (§4) (3) Addition of the samples: a bacteria solution with a concentration of 6×10^5 cfu/mL was prepared, and 10 μL of the bacteria solution was pipetted into each well of the 96-well plate. Three parallel experiments were set up for each concentration and the results were averaged. To the negative control group, 10 μL of the bacterial solution and 90 μL MH broth were added.
# (§5) (4) Incubation: the 96-well plate was placed in a 37° C. constant-temperature incubator for 18 hours, and the growth of the strains was observed. The drug concentration in the well with no microbial growth was recorded as the MIC.
# Acinetobacter baumannii [2] = test: Combined in vitro use, checkerboard dilution method
# Protocol: (§6) Mueller-Hinton broth (MH broth) medium, Trypticase Soy Broth (TSB Broth) medium, purchased from BD Difco, Cockeysville, MD, USA; • 96-well plate: Corning Costar, Cambridge, MA, USA; • Test method: the checkerboard dilution method was used for determination.
# (§7) (1) Preparation of the test samples: 4 mg of each sample was taken and was prepared into a test solution at 2,048 μg/mL with MH broth, and the test solution was diluted two-fold in a 96-well plate to prepare solutions of a series of gradient concentrations.
# as §3
# (§8) (3) Addition of the samples: 10 μL of the bacteria solution with a concentration of 6×10^5 CFU/mL was pipetted into each well of the 96-well plate. Each well contained the antibacterial drugs (the compound of formula (I-1) and the compound of formula (I-2)) diluted two-fold with broth and the aforementioned lactamase inhibitor or efflux pump inhibitor. […] The samples were mixed thoroughly. Three parallel experiments were set up for each concentration and the results were averaged. To the negative control group, 10 μL of the bacterial solution and 90 μL MH broth were added.
# (§9) (4) Incubation: the 96-well plate was placed in a 37° C. constant-temperature incubator for 18 hours, and the growth of the strains was observed.
# (§10) (5) Calculation: The in vitro effect of each drug-inhibitor combination was analyzed by calculating the FICI value: FICI=(MIC of drug A in the combination/MIC of drug A alone)+ (MIC of drug B in the combination/MIC of drug B alone).
# (§11) In order to ensure the reliability of the data, three repeated tests were conducted on different dates and the results were averaged.
# Pseudomonas aeruginosa [3] = test: MIC assay of individual compounds (microdilution, CLSI/NCCLS)
# Protocol: as §1, §2, §3, §4, §5
# Acinetobacter baumannii [4] = test: as above
# Protocol: as §1, §2, §3, §4, §5
# [5] = test system: drug-resistant Enterobacteriaceae strains; test: Checkerboard combination, summary over Enterobacteriaceae strains; conditions: combined with avibactam; all of the 4 drug-resistant Enterobacteriaceae strains tested
# Protocol: as §6, §7, §3
# (3) Addition of the samples: 10 μL of the bacteria solution with a concentration of 6×10^5 CFU/mL was pipetted into each well of the 96-well plate. Each well contained the antibacterial drugs (the compound of formula (I-1) and the compound of formula (I-2)) diluted two-fold with broth and the aforementioned lactamase inhibitor or efflux pump inhibitor. […] The samples were mixed thoroughly. Three parallel experiments were set up for each concentration and the results were averaged. […]
# (5) Calculation: The in vitro effect of each drug-inhibitor combination was analyzed by calculating the FICI value: FICI=(MIC of drug A in the combination/MIC of drug A alone)+ (MIC of drug B in the combination/MIC of drug B alone). […]
# Klebsiella pneumoniae [6] = test: Combined in vitro use, checkerboard dilution method
# Protocol: as §6, §7, §3, §8, §9, §10, §11
# Escherichia coli [7] = test: MIC assay of individual compounds (microdilution, CLSI/NCCLS)
# Protocol: as §1, §2, §3, §4, §5
# Enterobacter cloacae = test: as above
# Protocol: as §1, §2, §3, §4, §5
# Klebsiella pneumoniae [8] = test: as above
# Protocol: as §1, §2, §3, §4, §5
# Pseudomonas aeruginosa [9] = test: Combined in vitro use, checkerboard dilution method
# Protocol: as §6, §7, §3, §8, §9, §10, §11
# [10] = test system: drug-resistant Enterobacteriaceae; test: MIC assay of individual compounds, summary over Enterobacteriaceae strains; conditions: against the aforementioned Enterobacteriaceae
# Protocol: as §1, §2, §3, §4, §5
# Escherichia coli [11] = test: Combined in vitro use, checkerboard dilution method; conditions: compound of formula (I-1) combined with vaborbactam; Escherichia coli CCPM(A)-P-071301
# Protocol: as §6, §7, §3, §8, §9, §10, §11
# [12] = individual compound, Pseudomonas aeruginosa PAO1(CCPM(A)-P-09000032), read-out: MIC
# [13] = ATCC17978, individual compound, Acinetobacter baumannii ATCC 17978, read-out: MIC
# [14] = ATCC19606, individual compound, Acinetobacter baumannii ATCC 19606, read-out: MIC
# [15] = ATCC2469, individual compound, Escherichia coli ATCC 2469, read-out: MIC
# [16] = individual compound, Escherichia coli CCPM(A)-P-071301, read-out: MIC
# [17] = ATCC2468, individual compound, Enterobacter cloacae ATCC 2468, read-out: MIC
# [18] = Klebsiella pneumoniae, ATCC2146, individual compound, Klebsiella pneumoniae ATCC 2146, read-out: MIC
# [19] = Klebsiella pneumoniae, ATCC700603, individual compound, Klebsiella pneumoniae ATCC 700603, read-out: MIC
# [20] = Klebsiella pneumoniae, individual compound, Klebsiella pneumoniae CCPM(A)-0814R18, read-out: MIC
# [21] = Klebsiella pneumoniae, individual compound, Klebsiella pneumoniae CCPM(A)-0814R33, read-out: MIC
# [22] = Klebsiella pneumoniae, individual compound, Klebsiella pneumoniae CCPM(A)-081301, read-out: MIC
# [23] = Klebsiella pneumoniae, individual compound, Klebsiella pneumoniae CCPM(A)-081715, read-out: MIC
# [24] = Klebsiella pneumoniae, individual compound, Klebsiella pneumoniae CCPM(A)-081716, read-out: MIC
structure (smiles),measurement,setting,value
"COc1ccc2cc3[n+](cc2c1OC)CCc1cc2c(cc1-3)OCO2 [Berberine, berberine]",activity of the inhibitor itself,[1],relatively weak activities
same,MIC in combination,"Acinetobacter baumannii [2]; compound of formula (I-1) combined with berberine, Acinetobacter baumannii ATCC 19606",32 µg/mL
same,MIC in combination,"Acinetobacter baumannii [2]; compound of formula (I-1) combined with berberine, Acinetobacter baumannii CCPM(A)-P-101633(CRAB)",>0.5 µg/mL
same,MIC,"Pseudomonas aeruginosa [3]; individual compound, Pseudomonas aeruginosa ATCC27853, read-out: MIC",> 1020 µg/mL
same,MIC,"Pseudomonas aeruginosa [3]; individual compound, Pseudomonas aeruginosa CCPM(A)-P-091626(CRPA), read-out: MIC",> 1020 µg/mL
same,MIC,Pseudomonas aeruginosa [3]; [12],> 1020 µg/mL
same,MIC,Acinetobacter baumannii [4]; [13],> 1020 µg/mL
same,MIC,Acinetobacter baumannii [4]; [14],> 1020 µg/mL
same,MIC,"Acinetobacter baumannii [4]; individual compound, Acinetobacter baumannii CCPM(A)-P-101633(CRAB), read-out: MIC",> 1020 µg/mL
CC1(C)[C@H](NC(=O)/C(=N\OC2(C(=O)O)CCC2)c2csc(N)n2)C(=O)N1OS(=O)(=O)O [Compound of formula (I-2)],change of MIC values on combination,[5],significantly reduced
same,MIC in combination,"Klebsiella pneumoniae [6]; compound of formula (I-2) combined with avibactam, Klebsiella pneumoniae ATCC 2146",0.5 µg/mL
same,MIC in combination,"Klebsiella pneumoniae [6]; compound of formula (I-2) combined with avibactam, Klebsiella pneumoniae ATCC 700603",0.5 µg/mL
same,MIC in combination,"Klebsiella pneumoniae [6]; compound of formula (I-2) combined with avibactam, Klebsiella pneumoniae CCPM(A)-081715",0.5 µg/mL
same,MIC in combination,"Klebsiella pneumoniae [6]; compound of formula (I-2) combined with avibactam, Klebsiella pneumoniae CCPM(A)-081729",0.5 µg/mL
same,MIC,Escherichia coli [7]; [15],1 µg/mL
same,MIC,Escherichia coli [7]; [16],1 µg/mL
same,MIC,Enterobacter cloacae; [17],2 µg/mL
same,MIC,Klebsiella pneumoniae [8]; [18],2 µg/mL
same,MIC,Klebsiella pneumoniae [8]; [19],2 µg/mL
same,MIC,Klebsiella pneumoniae [8]; [20],2 µg/mL
same,MIC,Klebsiella pneumoniae [8]; [21],2 µg/mL
same,MIC,"Klebsiella pneumoniae [8]; Klebsiella pneumoniae, individual compound, Klebsiella pneumoniae CCPM(A)-0817R61, read-out: MIC",32 µg/mL
same,MIC,Klebsiella pneumoniae [8]; [22],2 µg/mL
same,MIC,"Klebsiella pneumoniae [8]; Klebsiella pneumoniae, individual compound, Klebsiella pneumoniae CCPM(A)-081705, read-out: MIC",2 µg/mL
same,MIC,Klebsiella pneumoniae [8]; [23],1 µg/mL
same,MIC,Klebsiella pneumoniae [8]; [24],32 µg/mL
same,MIC,"Klebsiella pneumoniae [8]; Klebsiella pneumoniae, individual compound, Klebsiella pneumoniae CCPM(A)-081729, read-out: MIC",1 µg/mL
"C[C@H]1[C@H]2CC[C@H]3[C@@H]4CC=C5C[C@@H](N(C)C)CC[C@]5(C)[C@H]4CC[C@]23CN1C [Conessine, conessine]",activity of the inhibitor itself,[1],relatively weak activities
same,MIC in combination,"Pseudomonas aeruginosa [9]; compound of formula (I-1) combined with conessine, Pseudomonas aeruginosa PAO1(CCPM(A)-P-09000032)",>256 µg/mL
same,MIC in combination,"Acinetobacter baumannii [2]; compound of formula (I-1) combined with conessine, Acinetobacter baumannii ATCC 19606",4 µg/mL
same,MIC,Pseudomonas aeruginosa [3]; [12],> 256 µg/mL
same,MIC,Acinetobacter baumannii [4]; [14],> 256 µg/mL
"N=C(N)NCCC[C@H](NC(=O)[C@@H](N)Cc1ccccc1)C(=O)Nc1ccc2ccccc2c1 [PAβN, PaβN] (H-Phe-Arg-βNA)",activity of the inhibitor itself,[1],relatively weak activities
same,MIC in combination,"Pseudomonas aeruginosa [9]; compound of formula (I-1) combined with PAβN, Pseudomonas aeruginosa ATCC27853",64 µg/mL
same,MIC in combination,"Pseudomonas aeruginosa [9]; compound of formula (I-1) combined with PAβN, Pseudomonas aeruginosa CCPM(A)-P-091626(CRPA)",128 µg/mL
same,MIC in combination,"Pseudomonas aeruginosa [9]; compound of formula (I-1) combined with PAβN, Pseudomonas aeruginosa PAO1(CCPM(A)-P-09000032)",64 µg/mL
same,MIC in combination,"Acinetobacter baumannii [2]; compound of formula (I-1) combined with PAβN, Acinetobacter baumannii CCPM(A)-P-101633(CRAB)",>0.5 µg/mL
same,MIC,Pseudomonas aeruginosa [3]; Pseudomonas aeruginosa,> 256 µg/mL
same,MIC,"Pseudomonas aeruginosa [3]; Pseudomonas aeruginosa, ATCC27853",> 256 µg/mL
same,MIC,"Pseudomonas aeruginosa [3]; Pseudomonas aeruginosa, PAO1",> 256 µg/mL
same,MIC,Acinetobacter baumannii [4]; [13],> 256 µg/mL
same,MIC,Acinetobacter baumannii [4]; [14],> 256 µg/mL
same,MIC,Acinetobacter baumannii [4]; Acinetobacter baumannii,> 256 µg/mL
"O=C(NC1CCNCC1)[C@@H]1CC[C@@H]2CN1C(=O)N2OS(=O)(=O)O [Relebactam, relebactam]",activity of the inhibitor itself,[10],relatively weak activities
same,MIC in combination,"Klebsiella pneumoniae [6]; compound of formula (I-1) combined with relebactam, Klebsiella pneumoniae ATCC 2146",0.5 µg/mL
same,MIC in combination,"Klebsiella pneumoniae [6]; compound of formula (I-1) combined with relebactam, Klebsiella pneumoniae ATCC 700603",8 µg/mL
same,MIC,Escherichia coli [7]; [15],64 µg/mL
same,MIC,Escherichia coli [7]; [16],64 µg/mL
same,MIC,Enterobacter cloacae; [17],128 µg/mL
same,MIC,"Enterobacter cloacae; individual compound, Enterobacter cloacae CCPM(A)-P-111719, read-out: MIC",128 µg/mL
same,MIC,Klebsiella pneumoniae [8]; [18],64 µg/mL
same,MIC,Klebsiella pneumoniae [8]; [19],64 µg/mL
same,MIC,Klebsiella pneumoniae [8]; [20],64 µg/mL
same,MIC,Klebsiella pneumoniae [8]; [21],64 µg/mL
same,MIC,Klebsiella pneumoniae [8]; [22],> 128 µg/mL
same,MIC,Klebsiella pneumoniae [8]; [23],64 µg/mL
same,MIC,Klebsiella pneumoniae [8]; [24],128 µg/mL
"O=C(O)C[C@@H]1CC[C@H](NC(=O)Cc2cccs2)B(O)O1 [Vaborbactam, vaborbactam]",activity of the inhibitor itself,[10],relatively weak activities
same,MIC in combination,Escherichia coli [11],0.5 µg/mL
same,MIC in combination,"Klebsiella pneumoniae [6]; compound of formula (I-1) combined with vaborbactam, Klebsiella pneumoniae ATCC 700603",8 µg/mL
same,MIC in combination,"Klebsiella pneumoniae [6]; compound of formula (I-1) combined with vaborbactam, Klebsiella pneumoniae CCPM(A)-0814R33",2 µg/mL
same,MIC,Escherichia coli [7]; Escherichia coli,> 128 µg/mL
same,MIC,"Escherichia coli [7]; Escherichia coli, ATCC2469",> 128 µg/mL
same,MIC,Enterobacter cloacae; Enterobacter cloacae,> 128 µg/mL
same,MIC,"Enterobacter cloacae; Enterobacter cloacae, ATCC2468",> 128 µg/mL
same,MIC,Klebsiella pneumoniae [8]; Klebsiella pneumoniae,> 128 µg/mL
same,MIC,"Klebsiella pneumoniae [8]; Klebsiella pneumoniae, ATCC2146",> 128 µg/mL
same,MIC,"Klebsiella pneumoniae [8]; Klebsiella pneumoniae, ATCC700603",> 128 µg/mL
same,MIC,"Klebsiella pneumoniae [8]; individual compound, Klebsiella pneumoniae CCPM(A)-0814R33",>128 µg/mL
same,MIC,"Klebsiella pneumoniae [8]; individual compound, Klebsiella pneumoniae CCPM(A)-081301",>128 µg/mL
same,MIC,"Klebsiella pneumoniae [8]; individual compound, Klebsiella pneumoniae CCPM(A)-081715",>128 µg/mL
same,MIC,"Klebsiella pneumoniae [8]; individual compound, Klebsiella pneumoniae CCPM(A)-081716",>128 µg/mL
